# The NIST ThermoML archive (doi:10.1016/j.jct.2019.02.019)
# ± gives the expanded uncertainty stated by the source.
# Columns and labels:
# [1] = 101 kPa, Liquid; for viscosity: Capillary tube (Ostwald / Ubbelohde) method; for mass density: Vibrating tube method
# [2] = xn = mol fraction of the nth substance listed; conditions: 101 kPa, Liquid, x2 = 0; for viscosity: Capillary tube (Ostwald / Ubbelohde) method; for mass density: Vibrating tube method
Compound,viscosity ([1]; 293.15 K),mass density ([1]; 293.15 K),viscosity ([1]; 303.15 K),mass density ([1]; 303.15 K),viscosity ([1]; 313.15 K),mass density ([1]; 313.15 K),viscosity ([1]; 323.15 K),mass density ([1]; 323.15 K),viscosity ([2]; 293.15 K),mass density ([2]; 293.15 K),viscosity ([2]; 303.15 K),mass density ([2]; 303.15 K),viscosity ([2]; 313.15 K),mass density ([2]; 313.15 K),viscosity ([2]; 323.15 K),mass density ([2]; 323.15 K)
NCCO [2-aminoethan-1-ol],23.4 ± 0.95 mPa·s,1016.3 ± 1 kg/m3,14.71 ± 0.6 mPa·s,1008.02 ± 1 kg/m3,9.77 ± 0.4 mPa·s,999.98 ± 1 kg/m3,6.83 ± 0.28 mPa·s,991.97 ± 1 kg/m3,–,–,–,–,–,–,–,–
NCCO [2-aminoethan-1-ol] + CN(CCO)CCO,–,–,–,–,–,–,–,–,23.4 ± 0.95 mPa·s,1016.3 ± 1 kg/m3,14.71 ± 0.6 mPa·s,1008.02 ± 1 kg/m3,9.77 ± 0.4 mPa·s,999.98 ± 1 kg/m3,6.83 ± 0.28 mPa·s,991.97 ± 1 kg/m3
CN(CCO)CCO [N-methyldiethanolamine],103.04 ± 4.3 mPa·s,1040.5 ± 1 kg/m3,57.28 ± 2.3 mPa·s,1032.6 ± 1 kg/m3,33.94 ± 1.4 mPa·s,1024.76 ± 1 kg/m3,21.31 ± 0.87 mPa·s,1017.12 ± 1 kg/m3,–,–,–,–,–,–,–,–
CCO [ethanol],1.17 ± 0.05 mPa·s,788.88 ± 1 kg/m3,0.97 ± 0.04 mPa·s,781.69 ± 1 kg/m3,0.81 ± 0.03 mPa·s,772.3 ± 1 kg/m3,0.69 ± 0.03 mPa·s,765.29 ± 1 kg/m3,–,–,–,–,–,–,–,–
CCO [ethanol] + CN(CCO)CCO,–,–,–,–,–,–,–,–,1.17 ± 0.05 mPa·s,788.88 ± 1 kg/m3,0.97 ± 0.04 mPa·s,781.69 ± 1 kg/m3,0.81 ± 0.03 mPa·s,772.3 ± 1 kg/m3,0.69 ± 0.03 mPa·s,765.29 ± 1 kg/m3
CCO [ethanol] + NCCO,–,–,–,–,–,–,–,–,1.17 ± 0.05 mPa·s,788.88 ± 1 kg/m3,0.97 ± 0.04 mPa·s,781.69 ± 1 kg/m3,0.81 ± 0.03 mPa·s,772.3 ± 1 kg/m3,0.69 ± 0.03 mPa·s,765.29 ± 1 kg/m3
